Test results taken from patent publication US11116760B2 (Gilead Sciences, Inc., priority 2018, dated 2021).
pEC50: −log10 of the molar value.

Biological target: α4β7 integrin (Homo sapiens (Human), UniProt P13612+P26010)
Assay: α4β7 Integrin Cell Capture Assay
Assay type: cell-based
[1] = Table 1, capture of α4β7 expressing RPM18866 cells on MadCAM-1 extracellular domain-coated plate
[2] = RPMI8866 cells captured on MadCAM-1 extracellular domain-coated plate
[3] = Table 2, capture of α4β7 expressing RPM18866 cells on MadCAM-1 extracellular domain-coated plate

Sequence of α4β7 integrin (P13612 34-1032): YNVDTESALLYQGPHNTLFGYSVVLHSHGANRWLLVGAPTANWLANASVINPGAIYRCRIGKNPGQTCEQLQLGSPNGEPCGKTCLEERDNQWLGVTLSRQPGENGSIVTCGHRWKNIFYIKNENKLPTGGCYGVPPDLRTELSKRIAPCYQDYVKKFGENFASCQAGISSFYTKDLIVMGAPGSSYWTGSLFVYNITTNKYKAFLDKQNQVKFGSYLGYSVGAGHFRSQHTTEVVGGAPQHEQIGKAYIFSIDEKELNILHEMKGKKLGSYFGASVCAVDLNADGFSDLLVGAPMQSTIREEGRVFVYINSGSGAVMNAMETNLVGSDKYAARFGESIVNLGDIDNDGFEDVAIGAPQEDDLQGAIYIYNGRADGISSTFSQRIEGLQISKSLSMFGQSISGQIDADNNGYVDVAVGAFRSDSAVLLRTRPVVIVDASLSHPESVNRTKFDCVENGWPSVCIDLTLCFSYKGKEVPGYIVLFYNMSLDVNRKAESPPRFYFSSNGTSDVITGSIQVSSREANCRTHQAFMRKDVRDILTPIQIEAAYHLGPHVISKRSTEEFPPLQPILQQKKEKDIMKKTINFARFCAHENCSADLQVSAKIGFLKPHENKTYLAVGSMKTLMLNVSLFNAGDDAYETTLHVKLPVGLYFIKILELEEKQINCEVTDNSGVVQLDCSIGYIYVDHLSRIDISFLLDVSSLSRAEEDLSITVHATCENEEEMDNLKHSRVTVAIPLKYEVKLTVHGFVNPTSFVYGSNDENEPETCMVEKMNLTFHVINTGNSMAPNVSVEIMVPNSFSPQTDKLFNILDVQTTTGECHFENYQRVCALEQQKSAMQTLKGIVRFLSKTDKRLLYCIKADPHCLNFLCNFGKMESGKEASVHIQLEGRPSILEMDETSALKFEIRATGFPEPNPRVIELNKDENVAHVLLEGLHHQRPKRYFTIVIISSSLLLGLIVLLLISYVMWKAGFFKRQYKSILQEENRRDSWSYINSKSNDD
Sequence of α4β7 integrin (P26010 20-798): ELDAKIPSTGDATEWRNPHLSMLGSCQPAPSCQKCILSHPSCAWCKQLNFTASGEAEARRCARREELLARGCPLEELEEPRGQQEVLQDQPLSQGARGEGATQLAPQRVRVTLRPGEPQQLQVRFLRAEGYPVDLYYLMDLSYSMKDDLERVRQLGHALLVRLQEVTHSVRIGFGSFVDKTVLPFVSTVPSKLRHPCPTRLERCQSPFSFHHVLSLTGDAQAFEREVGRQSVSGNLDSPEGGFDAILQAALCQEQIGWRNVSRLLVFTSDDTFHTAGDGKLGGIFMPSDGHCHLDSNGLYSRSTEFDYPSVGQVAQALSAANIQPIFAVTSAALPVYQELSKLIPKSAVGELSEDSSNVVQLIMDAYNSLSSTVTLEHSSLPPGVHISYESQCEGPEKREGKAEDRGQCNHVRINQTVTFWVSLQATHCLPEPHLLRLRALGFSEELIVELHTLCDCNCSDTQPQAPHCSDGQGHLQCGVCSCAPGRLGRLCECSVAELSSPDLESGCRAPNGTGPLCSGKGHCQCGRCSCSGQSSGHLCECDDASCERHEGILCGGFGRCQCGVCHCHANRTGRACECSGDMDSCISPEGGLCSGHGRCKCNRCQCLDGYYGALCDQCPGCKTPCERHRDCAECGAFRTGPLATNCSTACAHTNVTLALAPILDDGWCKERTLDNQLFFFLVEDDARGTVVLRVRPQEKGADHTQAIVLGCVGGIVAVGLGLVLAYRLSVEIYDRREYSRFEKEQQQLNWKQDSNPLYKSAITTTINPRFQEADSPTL

SMILES | pEC50 [1] | pEC50 [3] | further results
Cc1cc(C(F)(F)F)c(-c2ccc(C[C@H](NC(=O)c3c(F)cc(N4C[C@@H](C)OC[C@@H]4C(F)(F)F)cc3F)C(=O)O)c3cccnc23)c(=O)n1C [Example 136, (S)-2-(2,6-difluoro-4-((2R,5R)-2-methyl-5-(trifluoromethyl)morpholino)benzamido)-3-(8-(1,6-dimethyl-2-oxo-4-(trifluoromethyl)-1,2-dihydropyridin-3-yl)quinolin-5-yl)propanoic acid] | 9.70 |  | 
COc1cc2c(=O)n(-c3ccc(C[C@H](NC(=O)c4c(C)cc(N5CCOC[C@@H]5C(F)(F)F)cc4F)C(=O)O)c4cccnc34)c(=O)n(C)c2cn1 [Example 429] |  |  | pEC50 [2]: 9.79
Cn1c2c(cc(-c3ccc(C[C@H](NC(=O)c4c(F)cc(N5CCOC[C@@H]5C(F)(F)F)cc4F)C(=O)O)c4cccnc34)c1=O)CNCC2 [Example 438] |  |  | pEC50 [2]: 9.54
COc1cc(F)c(C(F)(F)F)cc1-c1ccc(C[C@H](NC(=O)c2c(F)cccc2F)C(=O)O)c2cccnc12 [Example 215] |  | 7.54 | 
Cc1cc(N2CCOC[C@@H]2C(F)(F)F)cc(F)c1C(=O)N[C@@H](Cc1ccc(-c2cc3cnccc3n(C)c2=O)c2ncccc12)C(=O)O [Example 469] |  |  | pEC50 [2]: 9.99
Cc1c(Cl)cc(-c2ccc(C[C@H](NC(=O)c3c(F)cc(N4CCOC[C@@H]4C(F)(F)F)cc3F)C(=O)O)c3cccnc23)c(=O)n1C [Example 161] |  | 9.52 | 
N#Cc1ccc(-c2ccc(C[C@H](NC(=O)c3c(F)cc(NC4(C(F)F)CC4)cc3F)C(=O)O)c3cccnc23)c(Cl)c1 [Example 284] |  | 7.34 | 
N#Cc1ccc(-c2ccc(C[C@H](NC(=O)c3c(Cl)cccc3Cl)C(=O)O)c3cc(F)cnc23)c(Cl)c1 [Example 30, (S)-3-(8-(2-chloro-4-cyanophenyl)-3-fluoroquinolin-5-yl)-2-(2,6-dichlorobenzamido)propanoic acid] | 7.77 |  | 
CC[C@@H](Nc1cc(F)c(C(=O)N[C@@H](Cc2ccc(-c3c(OC)c4ccccc4n(C)c3=O)c3ncccc23)C(=O)O)c(F)c1)C(F)(F)F [Example 122, (S)-2-(2,6-difluoro-4-(((R)-1,1,1-trifluorobutan-2-yl)amino)benzamido)-3-(4-methoxy-1-methyl-2-oxo-1,2-dihydro-[3,8′-biquinolin]-5′-yl)propanoic acid] | 9.70 |  | 
Cc1cc(C(F)(F)F)c(-c2ccc(C[C@H](NC(=O)c3c(F)cc(N4CC[C@@H]4C(F)(F)F)cc3F)C(=O)O)c3cccnc23)c(=O)n1C [Example 244] |  | 8.54 | 
CC[C@@H](Nc1cc(F)c(C(=O)N[C@@H](Cc2ccc(-c3cc(N(C)C)c(C)n(C)c3=O)c3ncccc23)C(=O)O)c(F)c1)C(F)(F)F [Example 268] |  | 8.37 | 
N#Cc1ccc(-c2ccc(C[C@H](NC(=O)c3c(F)cc(N[C@H](C4CC4)C(F)(F)F)cc3F)C(=O)O)c3cccnc23)c(Cl)c1 [Example 90] | 7.95 |  | 
Cc1cc(C(F)(F)F)c(-c2ccc(C[C@H](NC(=O)c3c(F)cc(N4CCO[C@H](C)[C@@H]4C(F)(F)F)cc3F)C(=O)O)c3cccnc23)c(=O)n1C [Example 137, (S)-2-(2,6-difluoro-4-((2R,3R)-2-methyl-3-(trifluoromethyl)morpholino)benzamido)-3-(8-(1,6-dimethyl-2-oxo-4-(trifluoromethyl)-1,2-dihydropyridin-3-yl)quinolin-5-yl)propanoic acid] | 9.40 |  | 
Cc1cc(C(F)(F)F)c(-c2ccc(C[C@H](NC(=O)c3c(F)cc(N4CCOC[C@@H]4C(F)(F)F)cc3F)C(=O)O)c3cccnc23)c(=O)n1C [Example 96, (S)-2-(2,6-difluoro-4-((R)-3-(trifluoromethyl)morpholino)benzamido)-3-(8-(1,6-dimethyl-2-oxo-4-(trifluoromethyl)-1,2-dihydropyridin-3-yl)quinolin-5-yl)propanoic acid] | 9.70 |  | 
Cc1cc(C(F)(F)F)c(-c2ccc(C[C@H](NC(=O)c3c(F)cc(N4C[C@H](C)OC[C@H]4C)cc3F)C(=O)O)c3cccnc23)c(=O)n1C [Example 243] |  | 8.54 | 
CC[C@@H](Nc1cc(F)c(C(=O)N[C@@H](Cc2ccc(-c3nccc(OC)c3C(F)(F)F)c3ncccc23)C(=O)O)c(F)c1)C(F)(F)F [Example 92, (S)-2-(2,6-difluoro-4-(((R)-1,1,1-trifluorobutan-2-yl)amino)benzamido)-3-(8-(4-methoxy-3-(trifluoromethyl)pyridin-2-yl)quinolin-5-yl)propanoic acid] | 8.70 |  | 
Cc1cc(N2CCOC[C@@H]2C(F)(F)F)cc(F)c1C(=O)N[C@@H](Cc1ccc(-c2cnc(C)n(C)c2=O)c2ncccc12)C(=O)O [Example 467] |  |  | pEC50 [2]: 9.62
CC[C@@H](Nc1cc(F)c(C(=O)N[C@@H](Cc2ccc(-c3ccc(C#N)cc3Cl)c3ncccc23)C(=O)O)c(F)c1)C(F)(F)F [Example 74, (S)-3-(8-(2-chloro-4-cyanophenyl)quinolin-5-yl)-2-(2,6-difluoro-4-(((R)-1,1,1-trifluorobutan-2-yl)amino)benzamido)propanoic acid] | 7.87 |  | 
Cc1cc(C(F)(F)F)c(-c2ccc(C[C@H](NC(=O)c3c(F)cc(N4CCO[C@@H](C(F)(F)F)C4)cc3F)C(=O)O)c3cccnc23)c(=O)n1C [Example 447] |  |  | pEC50 [2]: 9.57
N#Cc1ccc(-c2ccc(C[C@H](NC(=O)c3c(F)cc(C(=O)N[C@H]4C[C@@H](O)C4)cc3F)C(=O)O)c3cccnc23)c(Cl)c1 [Example 267] |  | 7.11 | 

SMILES | pEC50 [1] | pEC50 [3] | further results
Cc1cc(N2CCOC[C@@H]2C(F)(F)F)cc(F)c1C(=O)N[C@@H](Cc1cc(F)c(-c2cc3cnccc3n(C)c2=O)c2ncccc12)C(=O)O [Example 464] |  |  | pEC50 [2]: 9.89
Cc1cc(N2CCOC[C@@H]2C(F)(F)F)cc(F)c1C(=O)N[C@@H](Cc1ccc(-n2c(=O)c3cnccc3n(C)c2=O)c2ncccc12)C(=O)O [Example 434] |  |  | pEC50 [2]: 9.99
CC[C@@H](Nc1cc(F)c(C(=O)N[C@@H](Cc2ccc(-c3c(C)n(C)c(=O)n(C)c3=O)c3ncccc23)C(=O)O)c(F)c1)C(F)(F)F (atropisomer, axis not shown) [Example 234] |  | 8.64 | 
N#Cc1ccc(-c2ccc(C[C@H](NC(=O)c3c(F)cc(N4CCCCC4)cc3F)C(=O)O)c3cccnc23)c(Cl)c1 [Example 278] |  | 7.09 | 
N#Cc1ccc(-c2ccc(C[C@H](NC(=O)c3c(F)cccc3Cl)C(=O)O)c3cccnc23)c(Cl)c1 [Example 2, (S)-3-(8-(2-chloro-4-cyanophenyl)quinolin-5-yl)-2-(2-chloro-6-fluorobenzamido)propanoic acid] | 7.51 |  | 
CCn1c(=O)n(-c2ccc(C[C@H](NC(=O)c3c(C)cc(N4CCOC[C@@H]4C(F)(F)F)cc3F)C(=O)O)c3cccnc23)c(=O)c2ccncc21 [Example 417] |  |  | pEC50 [2]: 9.93
Cc1nc(-c2ccc(C[C@H](NC(=O)c3c(F)cc(N4CCOC[C@@H]4C(F)(F)F)cc3F)C(=O)O)c3cccnc23)nc2cc(F)ccc12 [Example 206] |  | 8.77 | 
Cc1cc(N2CCC2)c(-c2ccc(C[C@H](NC(=O)c3c(F)cc(N4CCOC[C@@H]4C(F)(F)F)cc3F)C(=O)O)c3cccnc23)c(=O)n1C [Example 103, (S)-3-(8-(4-(azetidin-1-yl)-1,6-dimethyl-2-oxo-1,2-dihydropyridin-3-yl)quinolin-5-yl)-2-(2,6-difluoro-4-((R)-3-(trifluoromethyl)morpholino)benzamido)propanoic acid] | 9.15 |  | 
O=C(N[C@@H](Cc1ccc(-c2c(Cl)cc(F)cc2Cl)c2ncc(F)cc12)C(=O)O)c1c(F)cccc1F [Example 32, (S)-3-(8-(2,6-dichloro-4-fluorophenyl)-3-fluoroquinolin-5-yl)-2-(2,6-difluorobenzamido)propanoic acid] | 7.12 |  | 
O=C(N[C@@H](Cc1ccc(-c2ncc3ccccc3c2C(F)(F)F)c2ncc(F)cc12)C(=O)O)c1c(Cl)cccc1Cl [Example 35, (S)-2-(2,6-dichlorobenzamido)-3-(3-fluoro-8-(4-(trifluoromethyl)isoquinolin-3-yl)quinolin-5-yl)propanoic acid] | 8.21 |  | 
CC[C@@H](Nc1cc(F)c(C(=O)N[C@@H](Cc2ccc(-c3ncc4c(n3)CCC4)c3ncccc23)C(=O)O)c(F)c1)C(F)(F)F [Example 311] |  | 7.91 | 
CCOCc1cc(OC)c(-c2ccc(C[C@H](NC(=O)c3c(F)cccc3F)C(=O)O)c3ccc(C)nc23)c(OC)c1 [Example 31, (S)-2-(2,6-difluorobenzamido)-3-(8-(4-(ethoxymethyl)-2,6-dimethoxyphenyl)-2-methylquinolin-5-yl)propanoic acid] | 7.71 |  | 
Cc1cc(C(F)(F)F)c(-c2ccc(C[C@H](NC(=O)c3c(F)cccc3F)C(=O)O)c3cccnc23)c(=O)n1C [Example 218] |  | 8.68 | 
COc1cccc(F)c1C(=O)N[C@@H](Cc1ccc(-c2ccc(C#N)cc2Cl)c2ncccc12)C(=O)O [Example 23, (S)-3-(8-(2-chloro-4-cyanophenyl)quinolin-5-yl)-2-(2-fluoro-6-methoxybenzamido)propanoic acid] | 7.33 |  | 
CS(=O)(=O)Cc1cc(F)c(C(=O)N[C@@H](Cc2ccc(-c3ccc(C#N)cc3Cl)c3ncccc23)C(=O)O)c(F)c1 [Example 48, (S)-3-(8-(2-chloro-4-cyanophenyl)quinolin-5-yl)-2-(2,6-difluoro-4-((methylsulfonyl)methyl)benzamido)propanoic acid] | 7.28 |  | 
Cc1nc(-c2ccc(C[C@H](NC(=O)c3c(F)cccc3F)C(=O)O)c3cccnc23)c(C(F)(F)F)c2ccccc12 [Example 318] |  | 7.84 | 
COc1cc2ccccc2cc1-c1ccc(C[C@H](NC(=O)c2c(F)cccc2F)C(=O)O)c2cccnc12 [Example 9, (S)-2-(2,6-difluorobenzamido)-3-(8-(3-methoxynaphthalen-2-yl)quinolin-5-yl)propanoic acid] | 7.60 |  | 
Cc1cc(C(F)(F)F)c(-c2ccc(C[C@H](NC(=O)c3c(F)cc(N4CCOC5(COC5)C4)cc3F)C(=O)O)c3cccnc23)c(=O)n1C [Example 459] |  |  | pEC50 [2]: 8.68
N#Cc1ccc(-c2ccc(C[C@H](NC(=O)c3c(F)cc(N4CCS(=O)(=O)CC4)cc3F)C(=O)O)c3cccnc23)c(Cl)c1 [Example 80, (S)-3-(8-(2-chloro-4-cyanophenyl)quinolin-5-yl)-2-(4-(1,1-dioxidothiomorpholino)-2,6-difluorobenzamido)propanoic acid] | 7.74 |  | 
